Consider 1 molecule from US7863295B2, “Treatments for neuropathy” (Children's Medical Center Corporation, priority 2008, dated 2011).

Series [1] concerns GFAP-DN-erbB4 mice. The series is described as follows: Footpad skin innervation (PGP9.5 immunohistochemistry) in GFAP-DN-erbB4 mice. It counts as in vivo, mouse. As to conditions: 4-week topical treatment, 1.2 mM cream. The procedure:
(§1) Preparation and Use of XIB4035. The cream containing XIB4035 (1.2 mM, Matrix Scientific, Columbia, S.C.) consisted of N-methyl-pyrrolidone (5%), isopropyl myristate (5%) and petroleum jelly (90%). Control cream had the same ingredients without XIB4035. Cream was applied twice daily to the hind paws of isoflurane anesthetized mice starting at P21 for a period of 9 days (for analysis of cell death in sciatic nerves) or 4 weeks (all other studies using GFAP-DN-erbB4). Treatment of RTX-induced neuropathy began at the time of RTX injection or 12 hours after RTX injection and proceeded twice daily for a period of one week.
(§2) Immunohistochemistry. Mice were anesthetized with 2.5% Avertin and footpad skin was removed and immersion fixed in 4% paraformaldehyde, 14% picric acid in 0.1 M phosphate buffer (pH 7.3) overnight at 4° C. and cryoprotected in 20% sucrose overnight at 4° C. Tissues were embedded in OCT and sectioned at 30 µm and stained as floating sections by washing 3 times for 5 minutes in PBS+0.1% Triton-X 100, blocked for 30 minutes in PBS+0.1% Triton-X 100+10% normal goat serum and then incubated, PGP9.5 rabbit polyclonal antibody (Ultraclone, 1:1000), overnight at 4° C. Sections were washed 3 times for 10 minutes in PBS+0.1% Triton-X 100 then incubated in donkey anti-rabbit Alexa-488 (Invitrogen) 1:300 for 2 hours at room temperature. […]

The subject of series [2] is GFAP-DN-erbB4 mice. The series is described as follows: Hot plate test (thermal nociception) in GFAP-DN-erbB4 mice treated topically with XIB4035 cream. It counts as in vivo, mouse. Conditions: cream 1.2 mM on hind paws twice daily for 4 weeks from P21, vs control cream. How it is done: (§3) We generated a cream containing XIB4035 (1.2 mM) and applied it directly to the hind paws of GFAP-DN-erbB4 and wild type mice twice daily for a period of 4 weeks starting at the time of weaning (P21). […] Thus, these experiments would test whether activation of Ret signaling has therapeutic effects after disease onset. To control for potential effects of the control cream, mice of both genotypes were treated in the same way with the base cream without the drug. Mice were tested for responses to noxious thermal stimulus prior to the initiation of treatment and every 7 days throughout the treatment period. […] Together, these findings indicate that topical treatment with XIB4035 preserves the ability of mice with SFN to respond to noxious heat stimulus without inducing hypersensitivity.
(§4) Animals and induction of neuropathy using RTX. Transgenic mouse lines used were as previously described (6, 8). Animals were kept in the animal facility with free access to food and water. Behavioral experiments were performed in a quiet environment at the same time of day. […] Paw withdrawal latency was measured as the time required for the mouse to visibly respond to the thermal stimulus, e.g. licking paws, lifting paws, or jumping off of the plate. […] The threshold was determined as the lowest force that evoked a visible withdrawal response. […]

For series [3], the system named is RTX-injected mice. The series is described as follows: Skin innervation in RTX-induced SFN. It is filed as in vivo, mouse. Conditions: topical cream 1.2 mM twice daily for one week. The source says: (§5) As it is unlikely that SFN is always caused by glial dysfunction, we considered it necessary to test the effectiveness of XIB4035 treatment on SFN resulting from a different pathogenic mechanism. Therefore we tested the efficacy of our therapeutic approach in resiniferatoxin (RTX)-induced SFN (9). RTX-induced SFN involves intraperitoneal injection of an ultrapotent capsaicin analog that targets c-fiber terminals by binding to and activating TRPV1 channels resulting in calcium influx, which induces loss of skin innervation and loss of thermal nociception (9). After RTX injection, mice were either treated immediately with XIB4035 or treatment was delayed by 12 hours. Both treatment paradigms yielded similar results.
(§6) Furthermore, innervation of the skin was preserved as a result of XIB4035 treatment in RTX-injected mice. […] Both c-fiber area and the number of fibers per Remak bundle were improved by treatment with XIB4035 in RTX-induced SFN.
Preparation and Use of XIB4035. The cream containing XIB4035 (1.2 mM, Matrix Scientific, Columbia, S.C.) consisted of N-methyl-pyrrolidone (5%), isopropyl myristate (5%) and petroleum jelly (90%). Control cream had the same ingredients without XIB4035. […]

For series [4], the system named is GFAP-DN-erbB4 and wild type mice. The series is described as follows: Mechanical sensitivity (von Frey filaments) after topical XIB4035 cream. It is filed as in vivo. As to conditions: all groups (GFAP-DN-erbB4 and wild type) after 4 weeks of topical treatment, 1.2 mM cream. The procedure:
as §3, §4

Series [5] concerns GFAP-DN-erbB4 mice. Nature of the series: Electron microscopy / morphometric analysis of Remak bundles in GFAP-DN-erbB4 mice. It is filed as in vivo, mouse. As to conditions: 4-week topical treatment, 1.2 mM cream. The procedure:
as §1
(§7) Plastic Embedding and Electron Microscopy. Tissue was prepared as in (6). Briefly, mice were perfused intracardially with 2% paraformaldehyde, 2.5% gluteraldehyde and 0.03% picric acid in 0.1 M cacodylate buffer (pH 7.2). Tissue was post-fixed overnight at 4° C. and embedded in Epon. Ultrathin sections were cut, collected on cellodin-coated grids and stained using uranyl acetate and lead citrate. Photographs were taken using the Tecnai G^2 Spirit BioTWIN transmission electron microscope.

Series [6] has as its system RTX-injected mice. The series is described as follows: Remak bundle structure (electron microscopy) in RTX-induced SFN. It is filed as in vivo, mouse. As to conditions: topical cream 1.2 mM twice daily for one week.
Excerpt: as §5, §6, §1, §7

Series [7] deals with wild type mice. The series is described as follows: Hot plate test (thermal nociception) in wild type mice treated topically with XIB4035 cream. It is filed as in vivo. As to conditions: cream 1.2 mM on hind paws twice daily for 4 weeks from P21. The procedure:
as §3, §4

Series [8] addresses T1, GFR[…]1 GDNF receptor (Mus musculus, UniProt P97785).
T1 sequence (P97785 25-430): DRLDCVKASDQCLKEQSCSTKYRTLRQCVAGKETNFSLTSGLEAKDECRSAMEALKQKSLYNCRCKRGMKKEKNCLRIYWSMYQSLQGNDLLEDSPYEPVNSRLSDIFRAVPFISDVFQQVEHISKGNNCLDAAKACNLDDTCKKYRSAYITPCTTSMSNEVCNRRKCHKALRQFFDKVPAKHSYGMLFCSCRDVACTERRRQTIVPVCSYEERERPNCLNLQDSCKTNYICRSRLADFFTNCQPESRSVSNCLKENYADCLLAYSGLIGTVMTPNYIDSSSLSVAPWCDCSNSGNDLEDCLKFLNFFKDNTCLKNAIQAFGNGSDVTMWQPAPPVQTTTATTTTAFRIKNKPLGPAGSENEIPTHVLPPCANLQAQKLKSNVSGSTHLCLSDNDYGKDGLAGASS
Conditions: murine cells; reference 11; cited from earlier work.

Series [9] relates to RTX-injected mice. Nature of the series: Hot plate test in resiniferatoxin (RTX)-induced SFN. It counts as in vivo, mouse.
Excerpt: as §5, §6
Animals and induction of neuropathy using RTX. Transgenic mouse lines used were as previously described (6, 8). Animals were kept in the animal facility with free access to food and water. […] Paw withdrawal latency was measured as the time required for the mouse to visibly respond to the thermal stimulus, e.g. licking paws, lifting paws, or jumping off of the plate. […] The threshold was determined as the lowest force that evoked a visible withdrawal response. […]

Series [10] has as its system GFAP-DN-erbB4 mice. The series is described as follows: Cell death detection (TUNEL) in sciatic nerves of GFAP-DN-erbB4 mice. It counts as in vivo, mouse. Conditions: sciatic nerve, topical cream 1.2 mM twice daily for 9 days from P21. The procedure: as §1
Cell Death Detection. Sciatic nerves were dissected from mice perfused with 4% paraformaldehyde in PBS and fixed overnight at 4° C. Nerves were embedded in OCT and 16 µm thick transverse sections were processed for TUNEL as follows. Sections were washed 3 times for 5 minutes with PBS followed by proteinase K digestion (0.02 U/mL) in 10 mM TRIS/HCl pH 7.5 for 30 minutes at 37° C. Digested sections were fixed with 4% paraformaldehyde at room temperature for 20 minutes followed by 3 washes in PBS for 5 minutes. Apoptotic nuclei were identified using the In Situ Cell Death Detection Kit (Roche). Nuclei were stained with DAPI and sections were mounted with Gel-Mount.

Series [11] concerns the target T2, GFR[…]1 GDNF receptor (Homo sapiens, UniProt P56159).
T2 sequence (P56159 25-429): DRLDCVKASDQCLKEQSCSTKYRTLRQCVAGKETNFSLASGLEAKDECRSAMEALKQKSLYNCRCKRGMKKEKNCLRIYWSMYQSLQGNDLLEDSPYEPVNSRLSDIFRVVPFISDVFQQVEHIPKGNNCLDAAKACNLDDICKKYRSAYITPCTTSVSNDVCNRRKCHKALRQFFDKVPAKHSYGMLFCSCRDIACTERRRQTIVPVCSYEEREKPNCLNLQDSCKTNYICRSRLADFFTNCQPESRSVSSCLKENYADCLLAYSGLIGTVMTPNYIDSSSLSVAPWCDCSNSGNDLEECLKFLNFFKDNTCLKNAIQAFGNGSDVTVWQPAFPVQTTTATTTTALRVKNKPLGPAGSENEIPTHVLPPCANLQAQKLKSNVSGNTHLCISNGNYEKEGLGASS
As to conditions: human cells; reference 11; cited from earlier work.

The subject of series [12] is wild type mice. Nature of the series: Footpad skin innervation (PGP9.5 immunohistochemistry) in wild type mice. It counts as in vivo, mouse. Conditions: 4-week topical treatment, 1.2 mM cream. The procedure: as §1, §2

For the molecule `CCN(CC)CCCC(C)Nc1cc(/C=C/c2ccccc2Cl)nc2cc(Cl)ccc12` (centres unmarked) [XIB4035, N4-{7-chloro-2-[(E)-2-(2-chloro-phenyl)-vinyl]-quinolin-4-yl}-N1,N1-diethyl-pentane-1,4-diamine], the “sensory nerve terminals in the footpad skin” value in series [1] is “prevented degeneration of sensory nerve terminals”. The “thermal nociception (hot plate, response to noxious thermal stimulus)” value in series [2] is listed as “dramatic preservation of thermal nociception”. For the same molecule, the “innervation of the skin” value in series [3] is reported as “preserved”. Besides, the “response thresholds to punctate mechanical stimuli (mechanoreception)” value in series [4] is “no effect on mechanoreception”. For the same molecule, in series [5], the “degeneration of Remak bundles and c-fiber axons” value is “prevented the degeneration of Remak bundles and c-fiber axons”; the “number of c-fibers per Remak bundle (morphometric analysis)” value was “preserved”; the “size of c-fiber axons (morphometric analysis)” value is “preserved”. Moreover, in series [6] (RTX-induced SFN), the c-fiber area entry is given as “improved” and the “number of fibers per Remak bundle” value is on record as “improved”. Further, the Remak bundle structure result in [6] (RTX-injected mice) is reported as “significantly improved”. For the same molecule, the “behavior in response to noxious thermal stimulus” value in series [7] was “remained normal”. In addition, the “activation of the Ret co-receptor by binding to the GDNF receptor” value in [8] was “activate the Ret co-receptor”. Moreover, in [9] (RTX model, cream 1.2 mM twice daily for one week, started at RTX injection or 12 hours later (similar results)), the thermal nociception entry is listed as “greatly improved thermal nociception”. Further, the “ability to respond to noxious heat (paw withdrawal latency)” value in series [9] (RTX-injected mice, seven days after RTX, vs control cream) is listed as “remarkable preservation of their ability to respond to noxious heat”. Moreover, the NMSC apoptosis entry in series [10] is “significantly reduced”. Also, in series [11], the “activation of the Ret co-receptor by binding to the GDNF receptor” value is “activate the Ret co-receptor”. Also, the “density of nerve terminals in skin” value in series [12] is “increased the density of nerve terminals”.
